Patent publication US9499493B2, “2,4-pyrimidinediamine compounds and their uses” (Rigel Pharmaceuticals, Inc., priority 2002, dated 2016)

Assays:
[1] = tested on: cultured human mast cells (CHMC); test: CHMC low cell density IgE activation: tryptase assay; type: cell-based; details: anti-IgE
Method in brief: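 Read-out: tryptase released into supernatant, measured by substrate turnover over 30 min at RT. Low-density CHMC (1000-1500 cells/well, per donor degranulation activity) in MT buffer, 1 hr at 37° C, then anti-IgE challenge 30 min at 37° C.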

[2] = tested on: cultured human mast cells (CHMC); test: CHMC low cell density ionomycin activation: tryptase assay; type: cell-based

Molecule | IC50 [1] | IC50 [2] | IC50 ([1]; Homo sapiens, Mast cell) | IC50 ([2]; Homo sapiens, Mast cell)
Cc1cc(Nc2nc(Nc3cccc(OCC(=O)N4CCOCC4)c3)ncc2F)cc(C)c1O [R940254, N4-(3,5-Dimethyl-4-hydroxyphenyl)-5-fluoro-N2-[3-(N-morpholino)carbonylmethyleneoxyphenyl]-2,4-pyrimidinediamine] | 986 nM | > 10000 nM |  | 
Oc1cccc(Nc2nc(NC3CCN(Cc4ccccc4)CC3)ncc2F)c1 [R940264, N2-[4-(N-Benzylpiperidino)]-5-fluoro-N4-(3-hydroxyphenyl)-2,4-pyrimidinediamine] | 10000 nM | > 10000 nM |  | 
Oc1cccc(Nc2ncc(F)c(Nc3ccc4cn[nH]c4c3)n2)c1 [R935262, 5-Fluoro-N2-(3-hydroxyphenyl)-N4-(indazoline-6-yl)-2,4-pyrimidinediamine] | 516 nM | > 10000 nM |  | 
CNC(=O)COc1cccc(Nc2ncc(F)c(Nc3ccc(OC(C)C)cc3)n2)c1 [R926730, 5-Fluoro-N4-(4-isopropoxyphenyl)-N2-[3-(N-methylamino)carbonylmethyleneoxyphenyl]-2,4-pyrimidinediamine] | 251 nM | > 10000 nM |  | 
COCc1cc(=O)oc2cc(Nc3ncc(F)c(Nc4ccc5c(COC)cc(=O)oc5c4)n3)ccc12 [R926620] | 8350 nM | > 10000 nM |  | 
OCCn1ncc2cc(Nc3nc(Nc4ccc5c(c4)OCCO5)ncc3F)ccc21 [R935258, N2-(3,4-Ethylenedioxyphenyl)-5-fluoro-N4-[1-(2-hydroxyethyl)indazoline-5-yl]-2,4-pyrimidinediamine] | 1190 nM | > 10000 nM |  | 
CNC(=O)COc1cccc(Nc2ncc(F)c(Nc3cc(C)ccc3Cl)n2)c1 [R926840, N4-(2-Chloro-5-methylphenyl)-5-fluoro-N2-[3-(N-methylamino)carbonylmethyleneoxyphenyl]-2,4-pyrimidinediamine] | 1100 nM | > 10000 nM |  | 
CNC(=O)COc1cccc(Nc2ncc(F)c(Nc3ccc(OC)c(O)c3)n2)c1 [R926834, 5-Fluoro-N4-(3-hydroxy-4-methoxyphenyl)-N2-[3-(N-methylamino)carbonylmethyleneoxyphenyl]-2,4-pyrimidinediamine] | 145 nM | > 10000 nM |  | 
CNC(=O)COc1cccc(Nc2ncc(F)c(Nc3ccc4c(c3)C(NC(C)=O)CCO4)n2)c1 (stereo not shown) [R950393, N4-(4-Acetylamino-3,4-dihydro-2H-1-benzopyran-6-yl)-5-fluoro-N2-[3-(N-methylamino)carbonylmethyleneoxyphenyl]-2,4-pyrimidinediamine] | 404 nM | > 10000 nM |  | 
NC(=O)COc1ccc(Nc2nc(Nc3cccc(O)c3)ncc2F)cc1 [R945063, N4-[4-(Aminocarbonylmethyleneoxy)phenyl]-5-fluoro-N2-(3-hydroxyphenyl)-2,4-pyrimidinediamine] | 1550 nM | > 10000 nM |  | 
Cn1ncc2cc(Nc3ncc(F)c(Nc4ccc5c(cnn5C)c4)n3)ccc21 [R935192, N2,N4-Bis(1-methyl-indazolin-5-yl)-5-fluoro-2,4-pyrimidinediamine] | 337 nM | > 10000 nM |  | 
CCOC(=O)COc1cccc(Nc2ncc(F)c(Nc3ccc(-n4cnc(Cl)c4Cl)cc3)n2)c1 [R926809, N4-[4-(4,5-Dichloro-1H-imidazol-1-yl)phenyl]-5-fluoro-N2-(3-ethoxycarbonylmethyleneoxyphenyl)-2,4-pyrimidinediamine] | 780 nM | 3050 nM |  | 
Fc1cnc(Nc2ccc3oc(CN4CCOCC4)cc3c2)nc1Nc1ccc2c(c1)OCCO2 [R926490, N4-(3,4-Ethylenedioxyphenyl)-5-fluoro-N2-[2-(N-morpholinomethylene)benzofuran-5-yl]-2,4-pyrimidinediamine] | 1570 nM | > 10000 nM |  | 
CCOc1ccc(Nc2ncc([N+](=O)[O-])c(Nc3ccc(OCC)cc3)n2)cc1 [R940090, N2,N4-Bis-(4-ethoxyphenyl)-5-nitro-2,4-pyrimidinediamine] |  |  | > 10000 nM | > 10000 nM
CCOC(=O)C(C)(C)c1ccc(Nc2nc(Nc3ccc4c(c3)OCCO4)ncc2F)cc1 [R935148, N2-(3,4-Ethylenedioxyphenyl)-N4-[4-[(1-ethoxycarbonyl-1-methyl)ethyl]phenyl]-5-fluoro-2,4-pyrimidinediamine] | 2220 nM | 9420 nM |  | 
OCCCn1ncc2cc(Nc3ncc(F)c(Nc4cccc(OC(F)(F)F)c4)n3)ccc21 [R935362, 5-Fluoro-N2-[1-(3-hydroxypropyl)indazoline-5-yl]-N4-(3-trifluoromethoxyphenyl)-2,4-pyrimidinediamine] | 409 nM | > 10000 nM |  | 
Fc1cnc(Nc2ccc3c(c2)OCCO3)nc1Nc1ccc(OCc2nc(-c3ccccc3)no2)cc1 [R935140, N2-(3,4-Ethylenedioxyphenyl)-5-fluoro-N4-[4-(3-phenyl-1,2,4-oxadiazol-5-yl)methyleneoxyphenyl]-2,4-pyrimidinediamine] | 275 nM | 959 nM |  | 
O=C(O)c1cnc(Nc2cccc(O)c2)nc1NC(C(=O)O)c1ccccc1 (stereo not shown) [R926535, 5-Carboxy-N2-(3-hydroxyphenyl)-N4-[N-(L)-phenylglycine)-2-pyrimidineamine] | > 10000 nM | > 10000 nM |  | 

Molecule | IC50 [1] | IC50 [2] | IC50 ([1]; Homo sapiens, Mast cell) | IC50 ([2]; Homo sapiens, Mast cell)
Fc1cnc(Nc2ccc3cn[nH]c3c2)nc1Nc1ccc(OC(F)(F)F)c(Cl)c1 [R935368, N4-(3-Chloro-4-trifluoromethoxyphenyl)-5-fluoro-N2-(indazoline-6-yl)-2,4-pyrimidinediamine] | 82 nM | > 10000 nM |  | 
COC(=O)COc1ccc(Nc2ncc(C(=O)OC)c(Nc3ccc(OCC(=O)OC(C)(C)C)cc3)n2)cc1 [R926580, N4-(4-tert-Butoxycarbonylmethyleneoxyphenyl)-N2-(4-methoxycarbonylmethyleneoxyphenyl)-5-methoxycarbonyl-2,4-pyrimidinediamine] | 10000 nM | > 10000 nM |  | 
FC(F)(F)c1cnc(Nc2ccc3c(c2)OCCO3)nc1Nc1ccc2c(c1)OCCO2 [R920669] | 420 nM | > 10000 nM |  | 
Cn1ncc2cc(Nc3ncc(F)c(Nc4ccc(Cl)nc4)n3)ccc21 [R935375, N4-(6-Chloro-3-pyridyl)-5-fluoro-N2-(1-methylindazoline-5-yl)-2,4-pyrimidinediamine] | 10000 nM | > 10000 nM |  | 
5-Cyano-N2-(3,4-ethylenedioxyphenyl)-N4-(methoxycarbonylbenzyl)-2,4-pyrimidinediamine [R925820] | > 10000 nM | > 10000 nM |  | 
CNC(=O)COc1cccc(Nc2ncc(F)c(Nc3cccc(NC)c3)n2)c1 [R950267, N4-(3-N-Methylaminophenyl)-5-fluoro-N2-[3-(N-methylamino)carbonylmethyleneoxyphenyl]-2,4-pyrimidinediamine] | 180 nM | > 10000 nM |  | 
COC(=O)c1cc2cc(Nc3ncc(F)c(Nc4ccc(OCc5nc(C)no5)cc4)n3)ccc2o1 [R935146, 5-Fluoro-N2-(2-methoxycarbonylbenzofura-5-yl)-N4-[4-(3-methyl-1,2,4-oxadiazol-5-yl)methyleneoxyphenyl]-2,4-pyrimidinediamine] | 3800 nM | > 10000 nM |  | 
CC(C)Oc1ccc(Nc2nc(Nc3ccc4cnn(CCCO)c4c3)ncc2F)cc1 [R935290, 5-Fluoro-N2-[1-(3-hydroxypropyl)indazoline-6-yl]-N4-(4-isopropoxyphenyl)-2,4-pyrimidinediamine] | 340 nM | > 10000 nM |  | 
CNC(=O)COc1cccc(Nc2ncc(F)c(Nc3cccc(CN)c3)n2)c1 [R940309, N4-(3-Aminomethylenephenyl)-5-fluoro-N2-[3-(methylaminocarbonylmethyleneoxy)phenyl]-2,4-pyrimidinediamine] | 1130 nM | > 10000 nM |  | 
OCC(O)COc1ccc(Nc2ncc(F)c(Nc3ccc4c(c3)OCCO4)n2)cc1 (stereo not shown) [R935179, N2-[4-(2,3-Dihydroxypropoxy)phenyl]-N4-(3,4-ethylenedioxypheny)-5-fluoro-2,4-pyrimidinediamine] | 557 nM | > 10000 nM |  | 
CC(C)Oc1ccc(Nc2nc(Nc3cccc(OCC(=O)O)c3)ncc2F)cc1 [R926731, 5-Fluoro-N2-[3-(carboxymethyleneoxy)phenyl]-N4-[4-(isopropoxy)phenyl]-2,4-pyrimidinediamine] | > 10000 nM | > 10000 nM |  | 
Fc1cnc(Nc2ccc(OCc3nc(-c4ccccc4)no3)cc2)nc1Nc1ccc2c(c1)OCCO2 [R935136, N4-(3,4-Ethylenedioxyphenyl)-5-fluoro-N2-[4-(3-phenyl-1,2,4-oxadiazol-5-yl)methyleneoxyphenyl]-2,4-pyrimidinediamine] | 952 nM | 2130 nM |  | 
COC(=O)COc1ccc(Nc2ncc(F)c(Nc3ccc4c(c3)OCCCO4)n2)cc1 [R935182, 5-Fluoro-N2-[4-(methoxycarbonylmethyleneoxy)phenyl]-N4-(3,4-propylenedioxyphenyl)-2,4-pyrimidinediamine] | 124 nM | 2470 nM |  | 
Nc1ccc(Nc2ncc(F)c(Nc3ccc(N)cc3)n2)cc1 [R950122, N2,N4-Bis(4-aminophenyl)-5-fluoro-2,4-pyrimidinediamine] | 3020 nM | > 10000 nM |  | 
Nc1cccc(Nc2nc(Nc3cccc(NC(=O)CCC(C(=O)O)N4C(=O)c5ccccc5C4=O)c3)ncc2F)c1 (racemic) [R950251, (±)-N4-(3-Aminophenyl)-5-fluoro-N2-(3-(3-carboxy-3-D,L-N-phtaloylamino)propylenecarbonylaminophenyl)-2,4-pyrimidinediamine] | > 10000 nM | > 10000 nM |  | 
Oc1cccc(Nc2ncc(F)c(Nc3ccc(OCCN4CCOCC4)cc3)n2)c1 [R926710, 5-Fluoro-N2-(3-hydroxyphenyl)-N4-[4-[2-(N-morpholino)ethyleneoxy]phenyl]-2,4-pyrimidinediamine] | 1760 nM | > 10000 nM |  | 
CNC(=O)COc1cc(Nc2ncc(F)c(Nc3cccc(O)c3)n2)ccc1OC [R926829, 5-Fluoro-N4-(3-hydroxyphenyl)-N2-[4-methoxy-3-(N-methylamino)carbonylmethyleneoxyphenyl]-2,4-pyrimidinediamine] | 688 nM | > 10000 nM |  | 
